# Experiments:
# Assay in all cases: Test C greenhouse herbicide test, pre- and postemergence
# Assay type in all cases: in vivo
# [1] = test system: barnyardgrass (Echinochloa crus-galli)
# Procedure, shortened: (§1)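 Pre- and postemergence greenhouse screen; values are visual control ratings, 0 meaning no effect and 100 complete kill, assigned relative to untreated plants after 13 to 15 d.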
# [2] = test system: blackgrass (Alopecurus myosuroides)
# Procedure, shortened: as §1
# corn (Zea mays) = test system: corn (Zea mays)
# Procedure, shortened: as §1
# [3] = test system: crabgrass, large (large crabgrass, Digitaria sanguinalis)
# Procedure, shortened: as §1
# [4] = test system: foxtail, giant (giant foxtail, Setaria faberii)
# Procedure, shortened: as §1
# [5] = test system: galium (catchweed bedstraw, Galium aparine)
# Procedure, shortened: as §1
# [6] = test system: lambsquarters (Chenopodium album)
# Procedure, shortened: as §1
# [7] = test system: nutsedge, yellow (yellow nutsedge, Cyperus esculentus)
# Procedure, shortened: as §1
# [8] = test system: oilseed rape (Brassica napus)
# Procedure, shortened: as §1
# [9] = test system: pigweed (Amaranthus retroflexus)
# Procedure, shortened: as §1
# [10] = test system: ragweed (common ragweed, Ambrosia elatior)
# Procedure, shortened: as §1
# [11] = test system: ryegrass, Italian (Italian ryegrass, Lolium multiflorum)
# Procedure, shortened: as §1
# soybean (Glycine max) = test system: soybean (Glycine max)
# Procedure, shortened: as §1
# [12] = test system: velvetleaf (Abutilon theophrasti)
# Procedure, shortened: as §1
# [13] = test system: wheat (winter wheat, Triticum aestivum)
# Procedure, shortened: as §1
# [14] = Postemergence, 31 g ai/ha, 0 to 100 scale (0 no effect, 100 complete control)
# [15] = Postemergence, 125 g ai/ha, scale 0 to 100, 0 is no effect, 100 is complete control
# [16] = Postemergence, 250 g ai/ha, scale 0 to 100, 0 no effect, 100 complete control, 13 to 15 d
# [17] = Preemergence, 31 g ai/ha, scale 0 to 100, 0 is no effect, 100 is complete control
# [18] = Preemergence, 62 g ai/ha, scale 0 to 100, 0 is no effect, 100 is complete control
# [19] = Preemergence, 125 g ai/ha, scale 0 to 100, 0 is no effect, 100 is complete control
# [20] = Preemergence, 250 g ai/ha, scale 0 to 100, 0 no effect, 100 complete control
# [21] = postemergence, 62 g ai/ha, scale 0 to 100, 0 no effect, 100 complete control
smiles,measurement,setting,value
COC(=O)Oc1cnn(C)c(=O)c1-c1c(C)sc2ccccc12 [Compound 97],Barnyardgrass plant response rating,[1]; [14],0
same,"Plant response rating, Barnyardgrass",[1]; [15],15
same,"Plant response rating, Barnyardgrass",[1]; [16],35
same,"Plant response rating, Barnyardgrass",[1]; [17],0
same,"Plant response rating, Barnyardgrass",[1]; [18],0
same,"Plant response rating, Barnyardgrass",[1]; [19],0
same,Barnyardgrass plant response rating,[1]; [20],35
same,Barnyardgrass plant response rating,[1]; [21],5
same,Blackgrass plant response rating,[2]; [14],0
same,"Plant response rating, Blackgrass",[2]; [15],0
same,"Plant response rating, Blackgrass",[2]; [16],0
same,"Plant response rating, Blackgrass",[2]; [17],0
same,"Plant response rating, Blackgrass",[2]; [18],0
same,"Plant response rating, Blackgrass",[2]; [19],0
same,Blackgrass plant response rating,[2]; [20],5
same,Blackgrass plant response rating,[2]; [21],0
same,Corn plant response rating,corn (Zea mays); [14],0
same,"Plant response rating, Corn",corn (Zea mays); [15],0
same,"Plant response rating, Corn",corn (Zea mays); [16],5
same,"Plant response rating, Corn",corn (Zea mays); [17],5
same,"Plant response rating, Corn",corn (Zea mays); [18],0
same,"Plant response rating, Corn",corn (Zea mays); [19],0
same,Corn plant response rating,corn (Zea mays); [20],0
same,Corn plant response rating,corn (Zea mays); [21],0
same,"Plant response rating, Crabgrass, Large",[3]; [15],10
same,"Plant response rating, Crabgrass, Large",[3]; [16],25
same,"Plant response rating, Crabgrass, Large",[3]; [17],0
same,"Plant response rating, Crabgrass, Large",[3]; [18],0
same,"Plant response rating, Crabgrass, Large",[3]; [19],0
same,"Crabgrass, Large plant response rating",[3]; [20],60
same,"Crabgrass, Large plant response rating",[3]; [21],5
same,"Plant response rating, Foxtail, Giant",[4]; [15],5
same,"Plant response rating, Foxtail, Giant",[4]; [16],5
same,"Plant response rating, Foxtail, Giant",[4]; [17],0
same,"Plant response rating, Foxtail, Giant",[4]; [18],5
same,"Plant response rating, Foxtail, Giant",[4]; [19],5
same,"Foxtail, Giant plant response rating",[4]; [20],55
same,"Foxtail, Giant plant response rating",[4]; [21],5
same,"Plant response rating, Galium",[5]; [15],85
same,"Plant response rating, Galium",[5]; [16],90
same,"Plant response rating, Galium",[5]; [17],0
same,"Plant response rating, Galium",[5]; [18],0
same,"Plant response rating, Galium",[5]; [19],0
same,Galium plant response rating,[5]; [20],90
same,Galium plant response rating,[5]; [21],80
same,"Plant response rating, Lambsquarters",[6]; [15],50
same,"Plant response rating, Lambsquarters",[6]; [16],60
same,"Plant response rating, Lambsquarters",[6]; [17],0
same,"Plant response rating, Lambsquarters",[6]; [18],0
same,"Plant response rating, Lambsquarters",[6]; [19],20
same,Lambsquarters plant response rating,[6]; [20],25
same,Lambsquarters plant response rating,[6]; [21],20
same,"Plant response rating, Nutsedge, Yellow",[7]; [15],0
same,"Plant response rating, Nutsedge, Yellow",[7]; [16],5
same,"Plant response rating, Nutsedge, Yellow",[7]; [17],0
same,"Plant response rating, Nutsedge, Yellow",[7]; [18],0
same,"Plant response rating, Nutsedge, Yellow",[7]; [19],0
same,"Nutsedge, Yellow plant response rating",[7]; [20],0
same,"Nutsedge, Yellow plant response rating",[7]; [21],0
same,"Plant response rating, Oilseed Rape",[8]; [15],0
same,"Plant response rating, Oilseed Rape",[8]; [16],35
same,"Plant response rating, Oilseed Rape",[8]; [17],0
same,"Plant response rating, Oilseed Rape",[8]; [18],0
same,"Plant response rating, Oilseed Rape",[8]; [19],0
same,Oilseed Rape plant response rating,[8]; [20],0
same,Oilseed Rape plant response rating,[8]; [21],0
same,"Plant response rating, Pigweed",[9]; [15],60
same,"Plant response rating, Pigweed",[9]; [16],75
same,"Plant response rating, Pigweed",[9]; [17],5
same,"Plant response rating, Pigweed",[9]; [18],35
same,"Plant response rating, Pigweed",[9]; [19],65
same,Pigweed plant response rating,[9]; [20],65
same,Pigweed plant response rating,[9]; [21],50
same,"Plant response rating, Ragweed",[10]; [15],25
same,"Plant response rating, Ragweed",[10]; [16],35
same,"Plant response rating, Ragweed",[10]; [17],0
same,"Plant response rating, Ragweed",[10]; [18],0
same,"Plant response rating, Ragweed",[10]; [19],0
same,Ragweed plant response rating,[10]; [20],10
same,Ragweed plant response rating,[10]; [21],10
same,"Plant response rating, Ryegrass, Italian",[11]; [15],50
same,"Plant response rating, Ryegrass, Italian",[11]; [16],55
same,"Plant response rating, Ryegrass, Italian",[11]; [17],5
same,"Plant response rating, Ryegrass, Italian",[11]; [18],5
same,"Plant response rating, Ryegrass, Italian",[11]; [19],30
same,"Ryegrass, Italian plant response rating",[11]; [20],30
same,"Ryegrass, Italian plant response rating",[11]; [21],30
same,"Plant response rating, Soybean",soybean (Glycine max); [15],5
same,"Plant response rating, Soybean",soybean (Glycine max); [16],5
same,"Plant response rating, Soybean",soybean (Glycine max); [17],15
same,"Plant response rating, Soybean",soybean (Glycine max); [18],10
same,"Plant response rating, Soybean",soybean (Glycine max); [19],10
same,Soybean plant response rating,soybean (Glycine max); [20],20
same,Soybean plant response rating,soybean (Glycine max); [21],0
same,"Plant response rating, Velvetleaf",[12]; [15],10
same,"Plant response rating, Velvetleaf",[12]; [16],30
same,"Plant response rating, Velvetleaf",[12]; [17],0
same,"Plant response rating, Velvetleaf",[12]; [18],0
same,"Plant response rating, Velvetleaf",[12]; [19],20
same,Velvetleaf plant response rating,[12]; [20],30
same,Velvetleaf plant response rating,[12]; [21],20
same,"Plant response rating, Wheat",[13]; [15],0
same,"Plant response rating, Wheat",[13]; [16],0
same,"Plant response rating, Wheat",[13]; [17],0
same,"Plant response rating, Wheat",[13]; [18],0
same,"Plant response rating, Wheat",[13]; [19],0
same,Wheat plant response rating,[13]; [20],0
same,Wheat plant response rating,[13]; [21],0

# Reference: patent US10597388B2, “Pyridazinone herbicides” (FMC CORPORATION, priority 2014, dated 2020)
